Results on eleven molecules are retold here after patent publication US8613914B2, “Peptidomimetic sulfamide compounds and antiviral uses thereof” (Novartis AG, priority 2009, dated 2013).

The target in the experiment is HCV NS3-4A serine protease (full-length NS3-4A protein) (Hepatitis C virus genotype 1a (isolate 1) (HCV), UniProt P26664). Description: HCV NS3-4A protease assay. It counts as biochemical, HCV genotype 1a. The following applies: strain HCV-1, fluorogenic peptide substrate, read-out: Protease assay Ex. 12 IC50. As to the method:
The inhibitory activity of certain compounds of Table A against HCV NS3-4A serine protease is determined in a homogenous assay using the full-length NS3-4A protein (genotype 1a, strain HCV-1) and a commercially available internally-quenched fluorogenic peptide substrate as described by Taliani, M., et al. 1996 Anal. Biochem. 240:60-67, which is incorporated by reference in its entirety.

Chain of HCV NS3-4A serine protease (full-length NS3-4A protein) (P26664 1027-1657): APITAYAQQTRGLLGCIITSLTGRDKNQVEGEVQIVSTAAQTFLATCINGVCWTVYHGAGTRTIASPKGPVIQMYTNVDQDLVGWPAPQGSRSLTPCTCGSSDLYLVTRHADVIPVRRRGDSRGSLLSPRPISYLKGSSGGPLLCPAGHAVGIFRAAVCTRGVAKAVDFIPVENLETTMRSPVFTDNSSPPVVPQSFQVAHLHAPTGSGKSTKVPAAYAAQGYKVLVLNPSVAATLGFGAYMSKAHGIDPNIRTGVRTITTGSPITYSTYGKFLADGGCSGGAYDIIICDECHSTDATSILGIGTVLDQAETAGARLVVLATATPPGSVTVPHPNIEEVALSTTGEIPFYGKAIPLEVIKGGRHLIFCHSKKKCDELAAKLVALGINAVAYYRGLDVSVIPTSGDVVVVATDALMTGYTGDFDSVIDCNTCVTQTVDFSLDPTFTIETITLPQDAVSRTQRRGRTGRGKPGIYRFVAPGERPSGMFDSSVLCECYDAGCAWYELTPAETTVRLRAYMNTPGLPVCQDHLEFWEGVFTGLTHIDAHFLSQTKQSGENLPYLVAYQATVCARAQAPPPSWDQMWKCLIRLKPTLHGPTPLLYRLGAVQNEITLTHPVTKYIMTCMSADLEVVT
Chain of HCV NS3-4A serine protease (full-length NS3-4A protein) (P26664 1658-1711 partner): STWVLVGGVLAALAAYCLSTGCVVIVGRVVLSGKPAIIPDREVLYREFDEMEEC

A word on the IC50: it is the point on the concentration scale where inhibition reaches its midpoint. As to `C=C[C@@H]1C[C@]1(NC(=O)[C@@H]1C[C@@]2(CN1C(=O)[C@@H](NC(=O)[C@@H](NC(=O)[C@@H]1CCCCN1C(C)C)C(C)(C)C)C1(C)CCOCC1)C(C)(C)C21CCC1)C(=O)NS(=O)(=O)N1CCCC1` [Compound 128, (5R,8S)-7-[(2S)-2-[(N-{[(2S)-1-isopropylpiperidin-2-yl]carbonyl}-3-methyl-L-valyl)amino]-2-(4-methyltetrahydro-2H-pyran-4-yl)acetyl]-10,10-dimethyl-N-{(1R,2S)-1-[(pyrrolidin-1-ylsulfonyl)carbamoyl]-2-vinylcyclopropyl}-7-azadispiro[3.0.4.1]decane-8-carboxamide], the IC50 is 1.4 nM.

Regarding `C=C[C@@H]1C[C@]1(NC(=O)[C@@H]1C[C@@]2(CN1C(=O)[C@@H](NC(=O)[C@@H](NC(=O)[C@@H]1CCCCN1C(C)C)C1(C)CCCCC1)C1(C)CCOCC1)C(C)(C)C21CCC1)C(=O)NS(=O)(=O)N1CCCC1` [Compound 147, (5R,8S)-7-[(2S)-2-{[(2S)-2-({[(2S)-1-isopropylpiperidin-2-yl]carbonyl}amino)-2-(1-methylcyclohexyl)acetyl]amino}-2-(4-methyltetrahydro-2H-pyran-4-yl)acetyl]-10,10-dimethyl-N-{(1R,2S)-1-[(pyrrolidin-1-ylsulfonyl)carbamoyl]-2-vinylcyclopropyl}-7-azadispiro[3.0.4.1]decane-8-carboxamide], the 50% inhibitory concentration (IC50) turned out to be 1.5 nM.

For the molecule `C=C[C@@H]1C[C@]1(NC(=O)[C@@H]1C[C@@]2(CN1C(=O)[C@@H](NC(=O)[C@@H](NC(=O)[C@@H]1CCCN1CC)C1(C)CCCCC1)C1(C)CCOCC1)C(C)(C)C21CCC1)C(=O)NS(=O)(=O)N(CC)CC` [Compound 153, (5R,8S)-N-[(1R,2S)-1-{[(diethylamino)sulfonyl]carbamoyl}-2-vinylcyclopropyl]-7-[(2S)-2-{[(2S)-2-({[(2S)-1-ethylpyrrolidin-2-yl]carbonyl}amino)-2-(1-methylcyclohexyl)acetyl]amino}-2-(4-methyltetrahydro-2H-pyran-4-yl)acetyl]-10,10-dimethyl-7-azadispiro[3.0.4.1]decane-8-carboxamide], the IC50 was 1.8 nM.

`CC[C@@H]1C[C@]1(NC(=O)[C@@H]1C[C@@]2(CN1C(=O)[C@@H](NC(=O)[C@@H](NC(=O)[C@@H]1CCCN1CC)C1CCCCC1)C(C)(C)C)C(C)(C)C21CCC1)C(=O)NS(=O)(=O)N1CCCC1` [Compound 99, (5R,8S)-7-[(2S)-2-{[(2S)-2-cyclohexyl-2-({[(2S)-1-ethylpyrrolidin-2-yl]carbonyl}amino)acetyl]amino}-3,3-dimethylbutanoyl]-N-{(1R,2R)-2-ethyl-1-[(pyrrolidin-1-ylsulfonyl)carbamoyl]cyclopropyl}-10,10-dimethyl-7-azadispiro[3.0.4.1]decane-8-carboxamide]: the 50% inhibitory concentration (IC50) was found to be 20 nM.

With `C=C[C@@H]1C[C@]1(NC(=O)[C@@H]1C[C@@]2(CN1C(=O)[C@@H](NC(=O)[C@@H](NC(=O)[C@@H]1CCCN1CC(F)(F)F)C1CCCCC1)C1CCOCC1)C(C)(C)C21CCC1)C(=O)NS(=O)(=O)N1CCCC1` [Compound 71, (5R,8S)-7-[(2S)-2-{[(2S)-2-cyclohexyl-2-({[(2S)-1-(2,2,2-trifluoroethyl)pyrrolidin-2-yl]carbonyl}amino)acetyl]amino}-2-(tetrahydro-2H-pyran-4-yl)acetyl]-10,10-dimethyl-N-{(1R,2S)-1-[(pyrrolidin-1-ylsulfonyl)carbamoyl]-2-vinylcyclopropyl}-7-azadispiro[3.0.4.1]decane-8-carboxamide], the IC50 came to 40 nM.

`C=C[C@@H]1C[C@]1(NC(=O)C1C[C@@]2(CN1C(=O)[C@@H](NC(=O)c1cccc(C(=O)NCCC)c1)C(C)(C)C)C(C)(C)C21CCC1)C(=O)NS(=O)(=O)N1CCCC1` (stereo partly drawn) [Compound 68, N-[(1S)-1-{[(5R)-10,10-dimethyl-8-({(1R,2S)-1-[(pyrrolidin-1-ylsulfonyl)carbamoyl]-2-vinylcyclopropyl}carbamoyl)-7-azadispiro[3.0.4.1]dec-7-yl]carbonyl}-2,2-dimethylpropyl]-N′-propylisophthalamide]: the concentration for half-maximal inhibition (IC50) came to 950 nM.

On to `C=C[C@@H]1C[C@]1(NC(=O)[C@@H]1C[C@@]2(CN1C(=O)[C@@H](NC(=O)[C@@H](NC(=O)[C@@H]1CCCN1CC)C1CCCCC1)C1CCOCC1)C(C)(C)C21CCC1)C(=O)NS(=O)(=O)N(CC)CC` [Compound 96, (5R,8S)-7-[(2S)-2-{[(2S)-2-cyclohexyl-2-({[(2S)-1-ethylpyrrolidin-2-yl]carbonyl}amino)acetyl]amino}-2-(tetrahydro-2H-pyran-4-yl)acetyl]-N-[(1R,2S)-1-{[(diethylamino)sulfonyl]carbamoyl}-2-vinylcyclopropyl]-10,10-dimethyl-7-azadispiro[3.0.4.1]decane-8-carboxamide], for which the half-inhibitory concentration (IC50) is 7 nM.

On to `C=C[C@@H]1C[C@]1(NC(=O)[C@@H]1C[C@@]2(CN1C(=O)[C@@H](NC(=O)[C@@H](NC(=O)[C@@H]1CCCCN1CC)C1CCCCC1)C1CCOCC1)C(C)(C)C21CCC1)C(=O)NS(=O)(=O)N(CC)CC` [Compound 85, (5R,8S)-7-[(2S)-2-{[(2S)-2-cyclohexyl-2-({[(2S)-1-ethylpiperidin-2-yl]carbonyl}amino)acetyl]amino}-2-(tetrahydro-2H-pyran-4-yl)acetyl]-N-[(1R,2S)-1-{[(diethylamino)sulfonyl]carbamoyl}-2-vinylcyclopropyl]-10,10-dimethyl-7-azadispiro[3.0.4.1]decane-8-carboxamide], for which the IC50 amounted to 4.5 nM.

On to `C=C[C@@H]1C[C@]1(NC(=O)[C@@H]1C[C@@]2(CN1C(=O)[C@@H](NC(=O)[C@@H](NC(=O)[C@@H]1CCCCN1CC)c1ccccc1)C(C)(C)C)C(C)(C)C21CCC1)C(=O)NS(=O)(=O)N1CCCC1` [Compound 103, (5R,8S)-7-[(2S)-2-{[(2S)-2-({[(2S)-1-ethylpiperidin-2-yl]carbonyl}amino)-2-phenylacetyl]amino}-3,3-dimethylbutanoyl]-10,10-dimethyl-N-{(1R,2S)-1-[(pyrrolidin-1-ylsulfonyl)carbamoyl]-2-vinylcyclopropyl}-7-azadispiro[3.0.4.1]decane-8-carboxamide], for which the 50% inhibitory concentration (IC50) stood at 20 nM.

Take `C=C[C@@H]1C[C@]1(NC(=O)[C@@H]1C[C@@]2(CN1C(=O)[C@@H](NC(=O)[C@@H](NC(=O)c1ccc3c(ccn3C)c1)C1CCCCC1)C(C)(C)C)C(C)(C)C21CCC1)C(=O)NS(=O)(=O)N1CCCC1` [Compound 198, (5R,8S)-7-{(2S)-2-[(cyclohexyl{[(1-methyl-1H-indol-5-yl)carbonyl]amino}acetyl)amino]-3,3-dimethylbutanoyl}-10,10-dimethyl-N-{(1R,2S)-1-[(pyrrolidin-1-ylsulfonyl)carbamoyl]-2-vinylcyclopropyl}-7-azadispiro[3.0.4.1]decane-8-carboxamide]: the concentration for half-maximal inhibition (IC50) is 40 nM.

With `C=C[C@@H]1C[C@]1(NC(=O)[C@@H]1C[C@@]2(CN1C(=O)[C@@H](NC(=O)[C@@H](NC(=O)[C@@H]1CCCCN1C(C)C)C1CCCCC1)C(C)(C)C)C(C)(C)C21CCC1)C(=O)NS(=O)(=O)N(C)CC(F)F` [Compound 83, (5R,8S)-7-[(2S)-2-{[(2S)-2-cyclohexyl-2-({[(2S)-1-isopropylpiperidin-2-yl]carbonyl}amino)acetyl]amino}-3,3-dimethylbutanoyl]-N-[(1R,2S)-1-({[(2,2-difluoroethyl)(methyl)amino]sulfonyl}carbamoyl)-2-vinylcyclopropyl]-10,10-dimethyl-7-azadispiro[3.0.4.1]decane-8-carboxamide], the IC50 came to 2 nM.
